Source: US20220095622A1, “Application of Compounds Inhibiting Synthesis of Very Long Chain Fatty Acids in Preventing and Treating Microbial Pathogens and Method Thereof” (Sichuan Agricultural University, priority 2019, published 2022)
Where two headings read alike, the source gives them in different places.

Tests used:
Format in all cases: in vivo
Bipolaris maydis = assay: whole plant or invertebrate; conditions: for inhibition at 500 µM: Bipolaris maydis, in Zea mays, read-out: inhibition rate on the formation of disease spots
Magnaporthe oryzae [1] = assay: whole plant or invertebrate; conditions: for inhibition at 100 µM / inhibition at 500 µM: Pyricularia oryzae, read-out: inhibition rate on the number of necrotic spots
Magnaporthe oryzae [2] = assay: whole plant or invertebrate; conditions: Pyricularia oryzae, read-out: inhibition rate of formation of rice blast necrotic spots, prevention experimental group
Magnaporthe oryzae [3] = assay: whole plant or invertebrate; conditions: Pyricularia oryzae, read-out: inhibition rate of formation of rice blast necrotic spots, treatment experimental group
Blumeria graminis = assay: Pathogenicity of Blumeria graminis on wheat leaves; conditions: 500 μmol/L, vs DMSO

| SMILES | inhibition of formation of disease spots on corn leaves (in words) (Bipolaris maydis; in vivo) | inhibition at 100 µM (Magnaporthe oryzae [1]) [%] | inhibition at 500 µM (Magnaporthe oryzae [1]) [%] | inhibition at 500 µM (Magnaporthe oryzae [2]) [%] | inhibition at 500 µM (Magnaporthe oryzae [3]) [%] | inhibition of occurrence of Blumeria graminis disease spots (in words) (Blumeria graminis) | inhibition of the number of necrotic spots of Magnaporthe oryzae (in words) (Magnaporthe oryzae [1]; drug concentration 100 μM, 30 seedlings sprayed with 5 mL, rice) | inhibition at 500 µM (Bipolaris maydis) [%] |
| --- | --- | --- | --- | --- | --- | --- | --- | --- |
| CC(C)N(C(=O)COc1nnc(C(F)(F)F)s1)c1ccc(F)cc1 [Flufenacet] | not obvious |  |  |  |  |  |  |  |
| CC(C)N(C(=O)SC/C(Cl)=C/Cl)C(C)C [Diallate] |  | > 50 | > 50 | > 50 | > 50 |  |  |  |
| CC(C)N(C(=O)CCl)c1ccccc1 [Propachlor] |  |  |  |  |  | all drugs except Propachlor could inhibit the occurrence of Blumeria graminis disease spots | insignificant inhibitory effect on rice blast | > 50 |
| CCCCOCN(C(=O)CCl)c1c(CC)cccc1CC [Butachlor] |  |  | > 50 |  |  |  |  | > 50 |
| Cc1cccc(C)c1N(Cn1cccn1)C(=O)CCl [Metazachlor] |  | > 50 | > 50 | > 50 | > 50 |  |  | > 50 |
| CCN(CC)C(=O)n1cnc(S(=O)(=O)c2c(C)cc(C)cc2C)n1 [Cafenstrole] |  | > 50 | > 50 | > 50 | > 50 |  |  | > 50 |
